One may read the IC50 as the concentration needed to halve the response being measured. For orientation: EC50 means the concentration needed to bring the measured effect to its halfway point. What is called AC50 is the concentration giving half of the maximal activity seen. Broadly, the CC50 is the concentration giving 50% cytotoxicity.

The source of these data is ChEMBL document CHEMBL1201862, “PubChem BioAssay data set” (2004).

For test [1], the target named is T1, Voltage-gated N-type calcium channel alpha-1B subunit/Amyloid beta A4 precursor protein-binding family A member 1 (Homo sapiens, UniProt Q00975+Q02410). Type of test: protein assay.
Test [2] addresses Glucose-6-phosphate 1-dehydrogenase (Homo sapiens, UniProt P11413). Description: human G6PD enzyme inhibitors, dose response, selectivity assay for P. falciparum G6PD inhibitor project, biochemical, fluorescence (AID 504792). In kind it is functional.
The subject of the next test is Streptococcus. Description: Group A Streptococcus viability loss, dose response, counter-screen for streptokinase expression inhibitor project, luminescence, BacTiterGlo (AID 1915).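 Further: potency for reduction of bacterial viability or growth.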 Type of test: functional, organism-based. In general terms: Counterscreens check selectivity or assay interference.
Another test has as its system CHO. Description: cytotoxicity in TLR9-MyD88 CHO cells, dose response, cytotoxicity control for TLR9-MyD88 binding inhibitor project, cell-based, luminescence (AID 588339).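 Further: CHO cells stably coexpressing TLR9 and MyD88 fusions from primary screen; compound exposure lasted 48 hours before viability readout.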 In kind it is functional, hamster. Conditions: Cricetulus griseus.
For test [3], the target named is Heat shock protein HSP 90-alpha (Homo sapiens, UniProt P07900). Type of test: functional, organism-based.
Test [4] deals with Streptococcus sp. 'group A'. Description: growth inhibition of control SK(-) GAS strain, dose response, counter-screen for streptokinase expression inhibitor project, luminescence, kanamycin, BacTiterGlo, confirmation (AID 1900). In kind it is functional, organism-based.
Test [5] is described as follows: Luminescent dose response cell-based high throughput screening assay for inhibitors of the Janus kinase 2 mutant JAK2V617F. [Related pubchem assays: 1446 (Primary screen.), 1521 (Confirmation assay.), 1486 (Counter screen.)]. Type of test: functional.
A further test addresses Melanocortin receptor 4 (Homo sapiens, UniProt P32245). Description: MC4R antagonist potency on cAMP, dose response, cell-based, TR-FRET, biased antagonists (AID 602298).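 Further: antagonist potency against agonist-stimulated cAMP production.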 In kind it is functional.
The target in a further test is Beta-galactosidase (Escherichia coli, UniProt Q8VNN2). Description: beta-galactosidase enzyme inhibitors and activators, dose response, artefact control for CCR6 antagonist project, biochemical, E. coli enzyme, set 3 (AID 504712). Type of test: functional.
The target of test [6] is T1, Voltage-gated N-type calcium channel alpha-1B subunit/Amyloid beta A4 precursor protein-binding family A member 1. In kind it is protein assay. This is another data set of the same source.
For another test, the target named is T2, Streptokinase A (Streptococcus pyogenes serotype M1, UniProt P10520).
T2 sequence (P10520 whole entry): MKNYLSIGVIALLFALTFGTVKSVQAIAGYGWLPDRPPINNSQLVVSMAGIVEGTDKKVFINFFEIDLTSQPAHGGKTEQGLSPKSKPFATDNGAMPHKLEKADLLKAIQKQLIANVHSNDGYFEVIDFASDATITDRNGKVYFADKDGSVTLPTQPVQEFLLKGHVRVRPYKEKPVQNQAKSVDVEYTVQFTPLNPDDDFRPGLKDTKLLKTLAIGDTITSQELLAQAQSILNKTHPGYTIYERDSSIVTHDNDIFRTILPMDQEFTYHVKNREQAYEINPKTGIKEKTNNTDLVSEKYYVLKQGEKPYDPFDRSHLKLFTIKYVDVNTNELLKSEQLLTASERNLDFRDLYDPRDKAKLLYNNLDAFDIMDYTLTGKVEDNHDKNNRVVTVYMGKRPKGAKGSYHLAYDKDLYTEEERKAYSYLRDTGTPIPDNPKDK
Description: S. pyogenes streptokinase expression inhibitors, potency, dose response, plasminogen activation absorbance, OD405 (AID 1914).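 Further: secreted streptokinase activity via plasminogen activation per viability signal from cell pellet.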 In kind it is functional, Streptococcus pyogenes M1 GAS.

Test [7] is described as follows: inhibitors of intracellular T. cruzi replication, confirmation, NIH3T3 host cells, beta-gal luminescence (AID 2044).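 Further: intracellular parasites grown in NIH/3T3 mouse fibroblasts as host cells; luminescent beta-galactosidase reporter signal from transgenic T. cruzi replicating inside host cells; inhibitors lower the luminescence signal.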 Type of test: functional, cell-based.
The nature of test [8]: control 3'UTR Renilla luciferase suppression, dose response, counter-screen for Shn3 inhibitor project, cell-based, Clone20-Shn3RL, cherry-picked (AID 624133). Type of test: functional.
Test [9] in a line: nonselective inhibitors of cellular cAMP signaling, dose response, counter-screen for MC4R biased antagonist project, cell-based, TR-FRET cAMP detection (AID 602305).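 Further: U2OS cells stimulated with forskolin near its EC80 as the cAMP inducer; potency is for inhibition of forskolin-stimulated cAMP signaling.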 In kind it is functional.
Test [10] can be described thus: HepG2 cell cytotoxicity, dose response, cytotoxicity control for Shn3 inhibitor project, CellTiter-Glo, cherry-picked (AID 624134). Type of test: functional, cell-based. (Cellular ATP, detected with luciferase, serves as a proxy for viable cell number.)
Test [11] is described as follows: cytotoxicity toward NIH3T3 fibroblasts, dose response, counter-screen, cell-based, ATP luminescence, mouse fibroblasts (AID 2010).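 Further: cells exposed to compound for about 90 hours before reading.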 In kind it is functional.
A short description of test [12]: Shn3 3'UTR reporter inhibitors, dose response, cell-based, Clone20 osteoblasts, firefly luciferase, cherry-picked (AID 624132).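 Further: firefly luciferase luminescence from reporter carrying the Shn3 3'UTR in osteoblasts.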 Type of test: functional.
The nature of test [13]: HepG2 cell cytotoxicity, dose response, cytotoxicity control for non-replicating M. tuberculosis project (AID 489018). In kind it is functional. Conditions: Mycobacterium tuberculosis.
The next test is described as follows: cells. Type of test: functional.
Test [14] is described as follows: THP-1 cell cytotoxicity, dose response, cytotoxicity control for non-replicating M. tuberculosis project (AID 489025). In kind it is functional.
Another test addresses Hexokinase (Trypanosoma brucei, UniProt Q38C41). Description: Confirmation assay for inhibitors of Trypanosoma brucei hexokinase 1-Analogue-first series. [Related pubchem assays (depositor defined):AID1430, AID1632, AID2516, AID2560, AID2579, AID2600, AID449725, AID492951]. In kind it is functional.
Test [15] addresses T3, RNA-binding protein pos-1 (Caenorhabditis elegans, UniProt G5EF15).
T3 sequence (G5EF15 whole entry): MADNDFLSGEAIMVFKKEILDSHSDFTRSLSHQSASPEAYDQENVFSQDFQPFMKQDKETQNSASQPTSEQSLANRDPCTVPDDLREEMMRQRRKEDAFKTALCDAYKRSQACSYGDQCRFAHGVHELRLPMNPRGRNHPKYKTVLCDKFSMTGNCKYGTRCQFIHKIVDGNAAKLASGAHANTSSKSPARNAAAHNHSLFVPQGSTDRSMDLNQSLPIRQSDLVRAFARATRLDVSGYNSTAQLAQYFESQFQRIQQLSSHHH
Description: inhibitors of POS-1/mex-3 RNA binding, dose response, biochemical, fluorescence polarization (AID 1964).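 Further: purified POS-1 fused to maltose binding protein made in E. coli; potency of compounds blocking POS-1 binding to fluorescent RNA.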

The next test addresses T4, Caspase-3 (Homo sapiens, UniProt P42574).
T4 sequence (P42574 whole entry): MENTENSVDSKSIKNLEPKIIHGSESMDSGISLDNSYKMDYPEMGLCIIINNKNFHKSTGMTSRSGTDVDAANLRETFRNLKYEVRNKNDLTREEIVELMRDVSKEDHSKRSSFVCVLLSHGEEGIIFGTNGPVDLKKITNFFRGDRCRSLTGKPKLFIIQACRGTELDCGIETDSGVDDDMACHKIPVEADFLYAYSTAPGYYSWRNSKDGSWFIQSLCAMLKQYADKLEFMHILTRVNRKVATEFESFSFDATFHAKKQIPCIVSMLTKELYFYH
Description: procaspase-3 activators, dose response, biochemical, absorbance (AID 489014).

A further test concerns the target Bcl-2-like protein 1 (Homo sapiens, UniProt Q07817). Description: BCL-XL inhibitors, dose response, selectivity assay for MCL1 inhibitor project, biochemical, fluorescence polarization, 1536-well (AID 2218). (In fluorescence polarisation assays a small probe gives low polarisation when free and higher when bound to something large.)
The target in another test is Caspase-7 (Homo sapiens, UniProt P55210). Description: procaspase-7 activators, dose response, counter-screen for procaspase-3 activator project, biochemical, absorbance (AID 489013).
The nature of test [16]: Luminescence Cell-Based Dose Retest to Confirm Inhibitors of Cancer Stem Cells. [Related pubchem assays (depositor defined):AID2717, AID2721]. In kind it is functional. Particulars: Homo sapiens.
For test [17], the target named is T5, Zinc finger protein mex-5 (Caenorhabditis elegans, UniProt Q9XUB2).
T5 sequence (Q9XUB2 whole entry): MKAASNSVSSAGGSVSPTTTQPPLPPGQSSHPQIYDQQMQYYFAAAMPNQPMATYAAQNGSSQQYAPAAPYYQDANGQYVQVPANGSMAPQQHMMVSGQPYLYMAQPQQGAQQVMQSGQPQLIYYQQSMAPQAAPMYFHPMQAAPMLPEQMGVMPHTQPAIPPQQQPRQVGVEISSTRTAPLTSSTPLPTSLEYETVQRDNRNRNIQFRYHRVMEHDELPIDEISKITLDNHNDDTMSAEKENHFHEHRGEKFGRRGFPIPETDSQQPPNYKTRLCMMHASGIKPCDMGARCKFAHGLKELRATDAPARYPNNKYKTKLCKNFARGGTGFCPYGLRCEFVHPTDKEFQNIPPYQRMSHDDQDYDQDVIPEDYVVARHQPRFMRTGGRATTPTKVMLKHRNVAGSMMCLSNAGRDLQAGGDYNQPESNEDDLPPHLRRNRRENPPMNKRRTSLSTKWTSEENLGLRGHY
Description: MEX-5/TCR-2 RNA interaction inhibitors, dose response, biochemical, C. elegans, fluorescence polarization (AID 1960).

In test [18] the target is Induced myeloid leukemia cell differentiation protein Mcl-1 (Homo sapiens, UniProt Q07820). Description: MCL1-BIM BH3 interaction inhibitors, dose response, biochemical, fluorescence polarization, BIM-BH3 peptide, 1536-well (AID 2217).

Each structure is given as a SMILES string. Calls of active or inactive are those of the source.

T1 sequence (Q00975 whole entry): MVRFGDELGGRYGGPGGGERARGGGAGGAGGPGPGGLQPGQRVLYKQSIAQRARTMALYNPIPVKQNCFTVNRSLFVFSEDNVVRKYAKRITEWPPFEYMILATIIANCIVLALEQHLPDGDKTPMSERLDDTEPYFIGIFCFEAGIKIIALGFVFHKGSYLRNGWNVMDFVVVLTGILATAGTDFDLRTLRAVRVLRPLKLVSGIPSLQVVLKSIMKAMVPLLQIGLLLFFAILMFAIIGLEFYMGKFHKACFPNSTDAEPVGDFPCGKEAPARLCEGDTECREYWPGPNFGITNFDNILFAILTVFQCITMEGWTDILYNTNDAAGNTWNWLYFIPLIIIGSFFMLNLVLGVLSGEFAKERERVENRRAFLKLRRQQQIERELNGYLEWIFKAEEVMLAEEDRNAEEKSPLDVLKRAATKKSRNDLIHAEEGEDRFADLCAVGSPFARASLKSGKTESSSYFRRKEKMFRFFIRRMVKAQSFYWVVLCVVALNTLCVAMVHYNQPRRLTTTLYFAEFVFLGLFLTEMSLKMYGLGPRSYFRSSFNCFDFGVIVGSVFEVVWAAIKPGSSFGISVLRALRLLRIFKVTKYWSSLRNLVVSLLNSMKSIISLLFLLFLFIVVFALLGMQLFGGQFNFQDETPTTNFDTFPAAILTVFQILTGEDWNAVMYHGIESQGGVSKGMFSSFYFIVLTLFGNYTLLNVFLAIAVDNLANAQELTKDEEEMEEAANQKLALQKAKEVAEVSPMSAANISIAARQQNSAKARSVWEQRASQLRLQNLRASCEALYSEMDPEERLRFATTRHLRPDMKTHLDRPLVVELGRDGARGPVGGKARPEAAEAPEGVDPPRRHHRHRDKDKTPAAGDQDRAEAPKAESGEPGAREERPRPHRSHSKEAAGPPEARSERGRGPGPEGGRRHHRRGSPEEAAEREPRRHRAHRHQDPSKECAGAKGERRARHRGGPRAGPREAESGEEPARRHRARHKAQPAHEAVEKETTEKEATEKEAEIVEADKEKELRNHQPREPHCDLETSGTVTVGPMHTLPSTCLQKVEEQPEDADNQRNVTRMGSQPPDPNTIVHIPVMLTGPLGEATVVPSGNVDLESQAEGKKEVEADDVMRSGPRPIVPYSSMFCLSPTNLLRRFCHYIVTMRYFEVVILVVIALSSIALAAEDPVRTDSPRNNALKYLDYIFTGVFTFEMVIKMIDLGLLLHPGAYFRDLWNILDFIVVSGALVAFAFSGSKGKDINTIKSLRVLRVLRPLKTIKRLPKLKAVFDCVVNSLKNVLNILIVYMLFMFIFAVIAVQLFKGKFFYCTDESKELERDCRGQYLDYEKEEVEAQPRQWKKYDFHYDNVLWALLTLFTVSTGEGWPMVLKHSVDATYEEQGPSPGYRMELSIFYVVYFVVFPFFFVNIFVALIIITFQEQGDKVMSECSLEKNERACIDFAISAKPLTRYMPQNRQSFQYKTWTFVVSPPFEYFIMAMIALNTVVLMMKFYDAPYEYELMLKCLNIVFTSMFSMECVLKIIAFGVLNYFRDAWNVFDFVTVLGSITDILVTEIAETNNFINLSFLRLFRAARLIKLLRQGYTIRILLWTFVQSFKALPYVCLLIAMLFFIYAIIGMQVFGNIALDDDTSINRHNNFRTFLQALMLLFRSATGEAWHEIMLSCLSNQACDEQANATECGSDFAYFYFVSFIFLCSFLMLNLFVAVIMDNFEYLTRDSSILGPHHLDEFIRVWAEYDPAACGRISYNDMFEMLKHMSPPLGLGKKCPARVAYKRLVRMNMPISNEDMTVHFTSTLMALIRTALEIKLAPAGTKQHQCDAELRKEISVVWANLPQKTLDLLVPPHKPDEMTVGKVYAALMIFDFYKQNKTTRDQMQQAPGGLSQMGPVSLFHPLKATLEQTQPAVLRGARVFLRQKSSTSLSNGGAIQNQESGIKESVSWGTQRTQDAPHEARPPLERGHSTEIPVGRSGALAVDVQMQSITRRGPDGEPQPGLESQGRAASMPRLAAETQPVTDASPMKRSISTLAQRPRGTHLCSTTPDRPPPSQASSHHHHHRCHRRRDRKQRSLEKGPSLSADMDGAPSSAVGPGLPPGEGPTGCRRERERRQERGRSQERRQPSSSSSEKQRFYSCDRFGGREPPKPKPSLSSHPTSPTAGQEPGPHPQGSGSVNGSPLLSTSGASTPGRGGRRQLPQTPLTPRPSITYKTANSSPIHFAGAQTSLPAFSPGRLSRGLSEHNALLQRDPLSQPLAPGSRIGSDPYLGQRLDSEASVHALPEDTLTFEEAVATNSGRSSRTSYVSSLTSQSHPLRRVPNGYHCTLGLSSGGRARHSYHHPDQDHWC
T1 sequence (Q02410 whole entry): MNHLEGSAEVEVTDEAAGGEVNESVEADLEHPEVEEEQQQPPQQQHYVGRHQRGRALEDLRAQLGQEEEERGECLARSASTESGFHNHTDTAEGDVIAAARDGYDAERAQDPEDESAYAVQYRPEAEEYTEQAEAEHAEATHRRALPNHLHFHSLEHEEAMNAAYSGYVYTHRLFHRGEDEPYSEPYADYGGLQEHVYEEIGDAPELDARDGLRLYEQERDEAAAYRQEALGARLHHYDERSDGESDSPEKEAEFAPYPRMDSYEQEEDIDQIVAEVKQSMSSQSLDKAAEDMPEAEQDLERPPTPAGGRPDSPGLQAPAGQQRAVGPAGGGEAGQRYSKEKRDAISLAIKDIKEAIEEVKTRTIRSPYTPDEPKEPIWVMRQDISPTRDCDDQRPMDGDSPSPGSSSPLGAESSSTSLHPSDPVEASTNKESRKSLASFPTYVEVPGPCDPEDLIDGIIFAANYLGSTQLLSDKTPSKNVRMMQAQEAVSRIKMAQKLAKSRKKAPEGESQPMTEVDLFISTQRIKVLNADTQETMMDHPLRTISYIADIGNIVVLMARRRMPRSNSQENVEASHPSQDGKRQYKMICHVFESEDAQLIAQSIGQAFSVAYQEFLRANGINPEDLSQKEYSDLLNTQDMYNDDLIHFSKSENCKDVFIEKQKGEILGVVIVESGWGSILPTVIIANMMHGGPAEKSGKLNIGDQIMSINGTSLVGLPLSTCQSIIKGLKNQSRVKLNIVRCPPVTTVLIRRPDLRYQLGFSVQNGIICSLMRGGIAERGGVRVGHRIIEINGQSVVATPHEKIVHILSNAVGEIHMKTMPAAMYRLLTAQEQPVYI
Chain of Induced myeloid leukemia cell differentiation protein Mcl-1 (Q07820 whole entry): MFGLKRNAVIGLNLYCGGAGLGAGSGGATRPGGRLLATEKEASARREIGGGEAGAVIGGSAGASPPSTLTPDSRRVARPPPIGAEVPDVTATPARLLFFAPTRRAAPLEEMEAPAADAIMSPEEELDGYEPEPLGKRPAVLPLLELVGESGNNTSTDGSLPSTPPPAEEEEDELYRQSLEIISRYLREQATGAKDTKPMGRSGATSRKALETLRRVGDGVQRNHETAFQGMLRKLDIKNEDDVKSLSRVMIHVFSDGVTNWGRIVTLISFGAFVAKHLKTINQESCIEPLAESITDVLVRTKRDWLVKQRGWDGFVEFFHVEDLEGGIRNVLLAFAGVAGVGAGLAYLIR
Chain of Glucose-6-phosphate 1-dehydrogenase (P11413 whole entry): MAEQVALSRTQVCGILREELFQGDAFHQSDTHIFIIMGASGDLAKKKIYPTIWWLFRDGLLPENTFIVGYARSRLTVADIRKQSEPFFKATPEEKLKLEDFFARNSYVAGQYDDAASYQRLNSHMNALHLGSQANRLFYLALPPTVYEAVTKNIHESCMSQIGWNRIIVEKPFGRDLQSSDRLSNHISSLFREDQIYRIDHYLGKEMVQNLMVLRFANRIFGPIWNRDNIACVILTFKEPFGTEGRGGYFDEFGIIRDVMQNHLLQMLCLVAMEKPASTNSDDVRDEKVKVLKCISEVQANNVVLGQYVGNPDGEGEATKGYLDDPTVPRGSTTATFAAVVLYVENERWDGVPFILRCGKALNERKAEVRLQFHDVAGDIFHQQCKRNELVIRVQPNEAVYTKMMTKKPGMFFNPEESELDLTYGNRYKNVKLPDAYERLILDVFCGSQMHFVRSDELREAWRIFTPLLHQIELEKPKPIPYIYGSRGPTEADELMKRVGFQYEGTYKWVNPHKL
Chain of Bcl-2-like protein 1 (Q07817 whole entry): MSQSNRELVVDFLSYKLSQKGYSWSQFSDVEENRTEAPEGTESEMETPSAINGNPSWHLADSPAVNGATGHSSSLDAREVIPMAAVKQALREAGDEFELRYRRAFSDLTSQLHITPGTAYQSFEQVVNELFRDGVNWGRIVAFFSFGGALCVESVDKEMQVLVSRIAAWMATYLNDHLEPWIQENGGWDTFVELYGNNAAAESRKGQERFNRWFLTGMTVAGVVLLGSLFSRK
Chain of Melanocortin receptor 4 (P32245 whole entry): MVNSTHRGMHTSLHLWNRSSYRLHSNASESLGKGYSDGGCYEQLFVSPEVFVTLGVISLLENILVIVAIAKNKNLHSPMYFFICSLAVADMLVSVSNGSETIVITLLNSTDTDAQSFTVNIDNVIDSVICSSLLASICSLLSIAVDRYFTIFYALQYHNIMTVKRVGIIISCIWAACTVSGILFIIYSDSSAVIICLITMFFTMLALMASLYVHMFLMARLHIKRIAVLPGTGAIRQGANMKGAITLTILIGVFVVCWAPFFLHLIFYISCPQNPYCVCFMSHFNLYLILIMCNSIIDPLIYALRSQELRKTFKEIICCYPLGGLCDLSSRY
Chain of Hexokinase (Q38C41 whole entry): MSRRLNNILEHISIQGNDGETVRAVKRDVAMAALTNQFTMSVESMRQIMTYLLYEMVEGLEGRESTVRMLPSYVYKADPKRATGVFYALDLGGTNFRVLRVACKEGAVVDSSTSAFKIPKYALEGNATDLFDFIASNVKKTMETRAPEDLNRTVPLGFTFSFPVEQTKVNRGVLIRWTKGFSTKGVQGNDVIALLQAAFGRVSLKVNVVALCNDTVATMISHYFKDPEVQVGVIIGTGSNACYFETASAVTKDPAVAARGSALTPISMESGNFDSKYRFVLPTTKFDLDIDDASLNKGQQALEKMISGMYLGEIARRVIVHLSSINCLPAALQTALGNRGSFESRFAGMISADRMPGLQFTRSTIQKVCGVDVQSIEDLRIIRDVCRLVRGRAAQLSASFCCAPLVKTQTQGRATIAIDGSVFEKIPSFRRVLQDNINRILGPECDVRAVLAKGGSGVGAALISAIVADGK

As to `O=C1C=CC(=O)N1CCNc1ncc(C(F)(F)F)cc1Cl`, the IC50 in test [1] was 1.53 µM (active); in test [2], > 80 µM (inactive); in the test on CHO it was 1.62 µM (active); in test [5] it was 0.383 µM (active); at Melanocortin receptor 4, 12.3 µM (inactive); on Beta-galactosidase it was > 66.6 µM (inactive). For the same compound, the IC50 in test [6] was 12 µM (active); in test [9] it was 15.1 µM (inactive). Moreover, the EC50 is > 150 µM (not active) in the test with Streptococcus; 10.4 µM (active) in test [4]; > 150 µM (not active) at Streptokinase A; 2.78 µM (active) in [7]; 3.98 µM (active) in test [11]. In addition, the half-maximal activity concentration (AC50) in test [3] is 0.482 µM (active); in [8] it was 11.9 µM (active); in test [10] it was 16 µM (active); in [12], 0.947 µM (active).
`CCOc1ccc(C(=O)Nc2nc3ccccc3[nH]2)cc1OCC`: the 50% cytotoxic concentration (CC50) in [13] is 18.8 µM (active); in test [14], > 40 µM (active). Also, the IC50 in “cells” is 12 µM (active).
Consider `O=C(Cn1sc2ccccc2c1=O)Nc1cccc(C(F)(F)F)c1`, for which the IC50 on Hexokinase was > 25 µM (inactive).
Turning to `COC(=O)c1ccccc1NCc1cc(=O)oc2cc(O)c(O)cc12`, the EC50 is 19 µM (inconclusive) in [15], > 1.05 µM (active) at Caspase-3, > 85.2 µM (inactive) at Caspase-7 and 18.4 µM (inconclusive) in [17]. In addition, the IC50 was > 109 µM (not active) at Bcl-2-like protein 1 and > 4.03 µM (active) in [18]. Also, the AC50 in test [16] was 6.97 µM (active).
